From ChEMBL document CHEMBL4017496 (J Med Chem, 2017)
Calls of active or inactive are those of the source. The calls are words filed in the database; no cut-off is given here.

How the values were obtained:
[1] = tested on: Mesenchymal stem cell; experiment: Inhibition of adipogenesis in human bone marrow-derived mesenchymal stem cells at 1 mM after 7 days in presence of IDX; assay type: functional, cell-based
[2] = tested on: Mesenchymal stem cell; experiment: Inhibition of adipogenesis in human bone marrow-derived mesenchymal stem cells assessed as decrease in number and size of lipid droplets at 1 mM after 7 days in presence of IDX by oil red O staining based inverted microscopic method; assay type: functional
[3] = target: T1, Peroxisome proliferator-activated receptor delta (Homo sapiens) (UniProt Q03181); experiment: Displacement of Fluormone-Pan-PPAR Green from human GST-tagged PPARdelta LBD at 4 uM by TR-FRET assay relative to control
T1 sequence (whole entry): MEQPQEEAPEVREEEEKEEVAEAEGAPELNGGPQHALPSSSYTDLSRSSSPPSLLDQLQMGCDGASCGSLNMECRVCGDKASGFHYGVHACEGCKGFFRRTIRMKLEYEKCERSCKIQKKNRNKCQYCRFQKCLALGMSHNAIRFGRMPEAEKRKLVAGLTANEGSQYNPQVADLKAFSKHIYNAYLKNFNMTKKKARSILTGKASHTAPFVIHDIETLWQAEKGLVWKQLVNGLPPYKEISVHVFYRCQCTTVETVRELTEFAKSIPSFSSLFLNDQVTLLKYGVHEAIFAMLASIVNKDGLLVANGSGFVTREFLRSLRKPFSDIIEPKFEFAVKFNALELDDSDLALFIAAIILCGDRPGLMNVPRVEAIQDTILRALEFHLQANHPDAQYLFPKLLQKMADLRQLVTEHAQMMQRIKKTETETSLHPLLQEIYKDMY

[4] = target: T2, Oxysterols receptor LXR-alpha (Homo sapiens) (UniProt Q13133); experiment: Binding affinity to human LXRalpha at 4 uM by TR-FRET assay
T2 sequence (whole entry): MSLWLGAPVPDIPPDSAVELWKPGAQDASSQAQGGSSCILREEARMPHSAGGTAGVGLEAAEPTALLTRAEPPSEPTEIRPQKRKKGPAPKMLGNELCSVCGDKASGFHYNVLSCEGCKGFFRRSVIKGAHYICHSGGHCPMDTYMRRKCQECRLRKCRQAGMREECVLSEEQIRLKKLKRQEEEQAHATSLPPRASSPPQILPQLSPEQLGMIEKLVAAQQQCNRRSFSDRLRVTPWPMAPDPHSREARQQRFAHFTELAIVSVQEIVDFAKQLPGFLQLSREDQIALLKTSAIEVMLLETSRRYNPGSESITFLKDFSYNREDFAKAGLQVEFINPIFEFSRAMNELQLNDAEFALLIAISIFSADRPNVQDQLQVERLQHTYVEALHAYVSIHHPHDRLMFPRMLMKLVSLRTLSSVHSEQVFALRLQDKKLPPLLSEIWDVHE

[5] = target: T3, Peroxisome proliferator-activated receptor alpha (Homo sapiens) (UniProt Q07869); experiment: Displacement of Fluormone-Pan-PPAR Green from human GST-tagged PPARalpha LBD at 4 uM by TR-FRET assay relative to control
T3 sequence (whole entry): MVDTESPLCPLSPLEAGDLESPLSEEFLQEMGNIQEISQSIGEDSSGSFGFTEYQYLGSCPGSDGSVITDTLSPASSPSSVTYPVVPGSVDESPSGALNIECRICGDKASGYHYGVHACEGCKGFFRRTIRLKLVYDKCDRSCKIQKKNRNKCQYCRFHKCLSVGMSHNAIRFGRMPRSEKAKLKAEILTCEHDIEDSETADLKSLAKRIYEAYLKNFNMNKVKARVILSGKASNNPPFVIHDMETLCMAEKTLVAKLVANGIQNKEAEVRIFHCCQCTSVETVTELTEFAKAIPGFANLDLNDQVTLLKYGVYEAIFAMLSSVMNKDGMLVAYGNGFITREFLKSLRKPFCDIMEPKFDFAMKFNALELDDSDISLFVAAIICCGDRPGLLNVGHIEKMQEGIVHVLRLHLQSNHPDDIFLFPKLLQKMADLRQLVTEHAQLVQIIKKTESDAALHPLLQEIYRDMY

[6] = target: T4, Peroxisome proliferator-activated receptor gamma (Homo sapiens) (UniProt P37231); experiment: Displacement of Fluormone-Pan-PPAR Green from human GST-tagged PPARgamma LBD at 4 uM by TR-FRET assay relative to control
T4 sequence (whole entry): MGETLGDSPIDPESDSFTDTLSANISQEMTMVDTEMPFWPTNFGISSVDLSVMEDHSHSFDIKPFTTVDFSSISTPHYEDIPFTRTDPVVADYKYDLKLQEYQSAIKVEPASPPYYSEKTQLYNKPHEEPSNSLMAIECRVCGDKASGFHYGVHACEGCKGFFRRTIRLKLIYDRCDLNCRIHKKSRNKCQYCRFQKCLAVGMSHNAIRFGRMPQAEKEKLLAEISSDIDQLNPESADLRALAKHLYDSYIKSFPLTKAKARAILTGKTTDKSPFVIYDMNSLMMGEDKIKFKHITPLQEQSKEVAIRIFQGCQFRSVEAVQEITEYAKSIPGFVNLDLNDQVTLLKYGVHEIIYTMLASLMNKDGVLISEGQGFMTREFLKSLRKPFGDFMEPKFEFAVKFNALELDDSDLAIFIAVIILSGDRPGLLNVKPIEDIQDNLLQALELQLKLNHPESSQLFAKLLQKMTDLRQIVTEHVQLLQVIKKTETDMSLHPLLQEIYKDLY

[7] = target: T5, Oxysterols receptor LXR-beta (Homo sapiens) (UniProt P55055); experiment: Binding affinity to human LXRbeta at 4 uM by TR-FRET assay
T5 sequence (whole entry): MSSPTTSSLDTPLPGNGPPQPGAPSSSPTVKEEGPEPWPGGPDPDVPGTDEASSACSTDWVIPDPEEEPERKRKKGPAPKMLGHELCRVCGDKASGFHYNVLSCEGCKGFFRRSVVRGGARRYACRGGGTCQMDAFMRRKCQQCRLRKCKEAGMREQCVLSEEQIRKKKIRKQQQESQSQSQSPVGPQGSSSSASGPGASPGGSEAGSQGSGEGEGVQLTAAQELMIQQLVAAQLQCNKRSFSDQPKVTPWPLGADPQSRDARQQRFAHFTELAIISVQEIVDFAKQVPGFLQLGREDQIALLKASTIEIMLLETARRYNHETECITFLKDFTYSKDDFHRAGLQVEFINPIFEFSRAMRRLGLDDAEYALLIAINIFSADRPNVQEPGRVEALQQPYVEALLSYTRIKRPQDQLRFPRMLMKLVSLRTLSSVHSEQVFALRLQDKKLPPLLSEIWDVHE

[8] = target: T6, Glucocorticoid receptor (Homo sapiens) (UniProt P04150); experiment: Displacement of Fluormone-GS1 from human GST-tagged glucocorticoid receptor LBD at 4 uM by TR-FRET assay
T6 sequence (whole entry): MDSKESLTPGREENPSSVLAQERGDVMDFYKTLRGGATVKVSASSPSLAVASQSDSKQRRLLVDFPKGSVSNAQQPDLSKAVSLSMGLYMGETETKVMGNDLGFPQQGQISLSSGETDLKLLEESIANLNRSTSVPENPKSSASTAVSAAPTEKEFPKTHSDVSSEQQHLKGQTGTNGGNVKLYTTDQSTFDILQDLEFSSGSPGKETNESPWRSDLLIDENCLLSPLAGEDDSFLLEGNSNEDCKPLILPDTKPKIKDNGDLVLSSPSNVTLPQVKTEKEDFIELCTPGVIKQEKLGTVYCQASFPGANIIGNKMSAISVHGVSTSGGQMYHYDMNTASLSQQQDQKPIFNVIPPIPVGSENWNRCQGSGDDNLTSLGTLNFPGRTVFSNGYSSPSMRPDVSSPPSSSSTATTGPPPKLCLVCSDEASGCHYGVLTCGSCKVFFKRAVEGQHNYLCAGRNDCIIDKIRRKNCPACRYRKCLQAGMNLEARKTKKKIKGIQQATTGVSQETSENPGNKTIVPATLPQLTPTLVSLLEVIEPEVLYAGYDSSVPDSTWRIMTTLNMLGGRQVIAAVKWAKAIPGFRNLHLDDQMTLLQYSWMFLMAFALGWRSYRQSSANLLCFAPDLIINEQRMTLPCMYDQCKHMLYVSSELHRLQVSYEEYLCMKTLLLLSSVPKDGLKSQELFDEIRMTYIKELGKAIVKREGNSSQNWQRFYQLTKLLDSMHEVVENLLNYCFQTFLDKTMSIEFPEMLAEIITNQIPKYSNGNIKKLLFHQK

[9] = target: T4, Peroxisome proliferator-activated receptor gamma (Homo sapiens); experiment: (§1) Displacement of Fluormone-Pan-PPAR Green from human GST-tagged PPARgamma LBD by TR-FRET assay
[10] = target: T7, Peroxisome proliferator-activated receptor gamma (Homo sapiens, UniProt P37231); experiment: as §1
T7 sequence (P37231 whole entry): T4 sequence (whole entry)

[11] = Induction of adipogenesis in human bone marrow-derived mesenchymal stem cells assessed as adiponectin level at 4 uM measured on day 7 after 48 hrs by ELISA; assay type: functional, Mesenchymal stem cell
[12] = Induction of adipogenesis in human bone marrow-derived mesenchymal stem cells assessed as adiponectin level at 20 uM measured on day 7 after 48 hrs by ELISA; assay type: functional, Mesenchymal stem cell
[13] = target: T3, Peroxisome proliferator-activated receptor alpha (Homo sapiens); experiment: Displacement of Fluormone-Pan-PPAR Green from human GST-tagged PPARalpha LBD at 20 uM by TR-FRET assay relative to control
[14] = target: T8, Peroxisome proliferator-activated receptor delta (Homo sapiens, UniProt Q03181); experiment: Displacement of Fluormone-Pan-PPAR Green from human GST-tagged PPARdelta LBD by TR-FRET assay
T8 sequence (Q03181 whole entry): T1 sequence (whole entry)

Row | inhibition [3] [%] | Activity [4] | inhibition [5] | inhibition [6] [%] | Activity [7] | inhibition [8] | inhibition [9] | Ki [10] [nM] | inhibition [13] [%] | Ki [14] [nM] | Compound | inhibition [1] | inhibition [2] | Activity [11] [pg/mL] | Activity [12] [pg/mL]
1 |  |  |  |  |  |  |  |  |  |  | Cn1c(=O)c2c(ncn2C)n(C)c1=O | Active | Active |  | 
2 | 75 | inactive | inactive | 59 | inactive | inactive | Dose-dependent effect | 2180 | 46.5 | 430 | CNC(=O)[C@H]1O[C@@H](n2cnc3c(NCc4cccc(I)c4)nc(Cl)nc32)[C@H](O)[C@@H]1O [NAMODENOSON] |  |  | 221 | 603
